Assay: Example 1: visual appearance of diesel with Cu or brass sheet
Type: physicochemical
Conditions: evaluation of Example 1; diesel oil with 5% FAME; time delay, concentration-dependent, turbulent flow
Protocol: Materials used: • 3,3′-methylenebis(5-methyloxazolidine) • brass 63 (100×20×1 mm), Cat. No.: 16-24 from Riegger Industriehandel, Reinbek, Federal Republic of Germany • E-copper ((100×20×1 mm), Cat. No.: 15-54 from Riegger • diesel fuel to EN 590, with 5% (V/V) fatty acid methyl ester
Procedure: The solutions and the metal sheet were each introduced into a 500 ml wide-neck bottle. Solutions 1A-1C were not stirred; solutions 1D-1G were stirred with a magnetic stirrer. The appearance of the solutions was assessed visually.

compatibility as an additive to diesel oil in contact with copper or nonferrous metal: incompatible
SMILES: CC1CN(CN2COC(C)C2)CO1 (stereo not shown) [3,3′-methylenebis(5-methyloxazolidine)]

— patent US8864853B2, “Additive mixture for the bactericidal and anticorrosive additization of fuels” (l'Air Liquide Societe Anonyme pour l'etude et …, priority 2009, dated 2014)
